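Protocol summary: plate cells (96-well), add compound at 5 concentrations, incubate 48 h, interpolate endpoints linearly. At the GI50, growth is halved. The concentration for full growth arrest is given as TGI.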
Key:
Experiment in all cases: inhibition of tumour cell growth, NCI panel, 48 h
786-0 renal = test system: 786-0 renal
A498 renal = test system: A498 renal
A549 NSCLC = test system: A549 NSCLC
ACHN renal = test system: ACHN renal
BT-549 breast = test system: BT-549 breast
CAKI-1 renal = test system: CAKI-1 renal
CCRF-CEM leukemia = test system: CCRF-CEM leukemia
COLO 205 colon = test system: COLO 205 colon
DU-145 prostate = test system: DU-145 prostate
EKVX NSCLC = test system: EKVX NSCLC
HCC-2998 colon = test system: HCC-2998 colon
HCT-116 colon = test system: HCT-116 colon
HCT-15 colon = test system: HCT-15 colon
HL-60(TB) leukemia = test system: HL-60(TB) leukemia
HOP-62 NSCLC = test system: HOP-62 NSCLC
HOP-92 NSCLC = test system: HOP-92 NSCLC
HS 578T breast = test system: HS 578T breast
HT29 colon = test system: HT29 colon
IGROV1 ovarian = test system: IGROV1 ovarian
K-562 leukemia = test system: K-562 leukemia
KM12 colon = test system: KM12 colon
LOX IMVI melanoma = test system: LOX IMVI melanoma
M14 melanoma = test system: M14 melanoma
MALME-3M melanoma = test system: MALME-3M melanoma
MCF7 breast = test system: MCF7 breast
MDA-MB-231 breast = test system: MDA-MB-231 breast
MDA-MB-435 = test system: MDA-MB-435
MOLT-4 leukemia = test system: MOLT-4 leukemia
NCI-H226 lung = test system: NCI-H226 lung
NCI-H23 lung = test system: NCI-H23 lung
NCI-H460 lung = test system: NCI-H460 lung
NCI-H522 lung = test system: NCI-H522 lung
NCI/ADR-RES ovarian = test system: NCI/ADR-RES ovarian
OVCAR-3 ovarian = test system: OVCAR-3 ovarian
OVCAR-4 ovarian = test system: OVCAR-4 ovarian
OVCAR-5 ovarian = test system: OVCAR-5 ovarian
OVCAR-8 ovarian = test system: OVCAR-8 ovarian
PC-3 prostate = test system: PC-3 prostate
RPMI-8226 leukemia = test system: RPMI-8226 leukemia
RXF 393 renal = test system: RXF 393 renal
SF-268 CNS = test system: SF-268 CNS
SF-295 CNS = test system: SF-295 CNS
SF-539 CNS = test system: SF-539 CNS
SK-MEL-2 melanoma = test system: SK-MEL-2 melanoma
SK-MEL-28 melanoma = test system: SK-MEL-28 melanoma
SK-MEL-5 melanoma = test system: SK-MEL-5 melanoma
SK-OV-3 ovarian = test system: SK-OV-3 ovarian
SN12C renal = test system: SN12C renal
SNB-19 CNS = test system: SNB-19 CNS
SNB-75 CNS = test system: SNB-75 CNS
SR leukemia = test system: SR leukemia
SW-620 colon = test system: SW-620 colon
T-47D breast = test system: T-47D breast
TK-10 renal = test system: TK-10 renal
U251 CNS = test system: U251 CNS
UACC-257 melanoma = test system: UACC-257 melanoma
UACC-62 melanoma = test system: UACC-62 melanoma
UO-31 renal = test system: UO-31 renal

`CCCCN(CCCC)CC(O)c1ccc(OCc2ccccc2)c2ccccc12` (stereo unspecified) gave a GI50 (786-0 renal) of 2.56 µM, a TGI (786-0 renal) of 6.25 µM and a GI50 (A498 renal) of 3.41 µM. It also gave a TGI (A498 renal) of 14.5 µM, a GI50 (A549 NSCLC) of 8.45 µM and a TGI (A549 NSCLC) of 22.4 µM. It also gave a GI50 (ACHN renal) of 4.76 µM, a TGI (ACHN renal) of 18 µM and a GI50 (BT-549 breast) of 5.32 µM. The TGI (BT-549 breast) was 17.2 µM, the GI50 (CAKI-1 renal) was 1.98 µM and the TGI (CAKI-1 renal) was 10.9 µM. The GI50 (CCRF-CEM leukemia) was 3.35 µM, the TGI (CCRF-CEM leukemia) was 16.3 µM and the GI50 (COLO 205 colon) was 2.98 µM. The TGI (COLO 205 colon) was 12.1 µM, the GI50 (DU-145 prostate) was 8.63 µM and the TGI (DU-145 prostate) was 22.6 µM. For the same molecule, the GI50 (EKVX NSCLC) was 5.66 µM, the TGI (EKVX NSCLC) was 20.2 µM and the GI50 (HCC-2998 colon) was 2.36 µM. The TGI (HCC-2998 colon) was 6.34 µM, the GI50 (HCT-116 colon) was 2.84 µM and the TGI (HCT-116 colon) was 11.7 µM. The GI50 (HCT-15 colon) was 2.58 µM, the TGI (HCT-15 colon) was 7.47 µM and the GI50 (HL-60(TB) leukemia) was 2.51 µM. The TGI (HL-60(TB) leukemia) was 8.25 µM, the GI50 (HOP-62 NSCLC) was 5.57 µM and the TGI (HOP-62 NSCLC) was 19.7 µM. It also gave a GI50 (HOP-92 NSCLC) of 1.87 µM, a TGI (HOP-92 NSCLC) of 6.27 µM and a GI50 (HS 578T breast) of 4.99 µM. For the same molecule, the TGI (HS 578T breast) was 30.9 µM, the GI50 (HT29 colon) was 1.52 µM and the TGI (HT29 colon) was 4.55 µM. The GI50 (IGROV1 ovarian) was 1.96 µM, the TGI (IGROV1 ovarian) was 16.7 µM and the GI50 (K-562 leukemia) was 2.82 µM. The TGI (K-562 leukemia) was 10.4 µM, the GI50 (KM12 colon) was 3.4 µM and the TGI (KM12 colon) was 19.5 µM. For the same molecule, the GI50 (LOX IMVI melanoma) was 1.94 µM, the TGI (LOX IMVI melanoma) was 4.78 µM and the GI50 (M14 melanoma) was 3.13 µM. It also gave a TGI (M14 melanoma) of 11.4 µM, a GI50 (MALME-3M melanoma) of 2.27 µM and a TGI (MALME-3M melanoma) of 7.09 µM. It also gave a GI50 (MCF7 breast) of 3.19 µM, a TGI (MCF7 breast) of 10.9 µM and a GI50 (MDA-MB-231 breast) of 2.28 µM. The TGI (MDA-MB-231 breast) was 7.92 µM, the GI50 (MDA-MB-435) was 3.17 µM and the TGI (MDA-MB-435) was 14 µM. The GI50 (MOLT-4 leukemia) was 3.54 µM, the TGI (MOLT-4 leukemia) was 16.5 µM and the GI50 (NCI-H226 lung) was 4.03 µM. It also gave a TGI (NCI-H226 lung) of 16.7 µM, a GI50 (NCI-H23 lung) of 3.01 µM and a TGI (NCI-H23 lung) of 13 µM. The GI50 (NCI-H460 lung) was 3.11 µM, the TGI (NCI-H460 lung) was 10.5 µM and the GI50 (NCI-H522 lung) was 1.72 µM. It also gave a TGI (NCI-H522 lung) of 4.37 µM, a GI50 (NCI/ADR-RES ovarian) of 3.74 µM and a TGI (NCI/ADR-RES ovarian) of 16 µM. For the same molecule, the GI50 (OVCAR-3 ovarian) was 4.9 µM, the TGI (OVCAR-3 ovarian) was 18.3 µM and the GI50 (OVCAR-4 ovarian) was 6.22 µM. For the same molecule, the TGI (OVCAR-4 ovarian) was 17.4 µM, the GI50 (OVCAR-5 ovarian) was 3.86 µM and the TGI (OVCAR-5 ovarian) was 16.2 µM. For the same molecule, the GI50 (OVCAR-8 ovarian) was 11 µM, the TGI (OVCAR-8 ovarian) was 24.4 µM and the GI50 (PC-3 prostate) was 2.9 µM. The TGI (PC-3 prostate) was 15.6 µM, the GI50 (RPMI-8226 leukemia) was 2.22 µM and the TGI (RPMI-8226 leukemia) was 5.81 µM. It also gave a GI50 (RXF 393 renal) of 2.39 µM, a TGI (RXF 393 renal) of 4.93 µM and a GI50 (SF-268 CNS) of 7.07 µM. The TGI (SF-268 CNS) was 24.2 µM, the GI50 (SF-295 CNS) was 3.13 µM and the TGI (SF-295 CNS) was 11.6 µM. It also gave a GI50 (SF-539 CNS) of 5.09 µM, a TGI (SF-539 CNS) of 17 µM and a GI50 (SK-MEL-2 melanoma) of 3.39 µM. The TGI (SK-MEL-2 melanoma) was 12 µM, the GI50 (SK-MEL-28 melanoma) was 6.08 µM and the TGI (SK-MEL-28 melanoma) was 18.8 µM. It also gave a GI50 (SK-MEL-5 melanoma) of 1.88 µM, a TGI (SK-MEL-5 melanoma) of 3.69 µM and a GI50 (SK-OV-3 ovarian) of 8.31 µM. For the same molecule, the TGI (SK-OV-3 ovarian) was 22.7 µM, the GI50 (SN12C renal) was 3.25 µM and the TGI (SN12C renal) was 14.9 µM. The GI50 (SNB-19 CNS) was 3.79 µM, the TGI (SNB-19 CNS) was 16.3 µM and the GI50 (SNB-75 CNS) was 3.6 µM. It also gave a TGI (SNB-75 CNS) of 15.8 µM, a GI50 (SR leukemia) of 2.75 µM and a TGI (SR leukemia) of 8.4 µM. The GI50 (SW-620 colon) was 3.32 µM, the TGI (SW-620 colon) was 14.5 µM and the GI50 (T-47D breast) was 3.74 µM. It also gave a TGI (T-47D breast) of 14.9 µM, a GI50 (TK-10 renal) of 2.15 µM and a TGI (TK-10 renal) of 5.24 µM. For the same molecule, the GI50 (U251 CNS) was 4.88 µM, the TGI (U251 CNS) was 17.1 µM and the GI50 (UACC-257 melanoma) was 5.21 µM. It also gave a TGI (UACC-257 melanoma) of 17.2 µM, a GI50 (UACC-62 melanoma) of 2.33 µM and a TGI (UACC-62 melanoma) of 11.2 µM. The GI50 (UO-31 renal) was 0.974 µM and the TGI (UO-31 renal) was 7.13 µM.
